The nature of this data set: gradient 5% acetonitrile 3 min, to 50% in 2 min, to 85% in 15 min, held 3 min, 100 µL/min. The conditions noted are these: column: Zorbax Extend-C18 2.1 x 50 mm; eluents: water / acetonitrile, 0.1% formic acid. The gist of the method:
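Standards, all pure, were combined into mixtures of ~100 molecules and run at 100 μL/min on a Zorbax Extend-C18 column (2.1 × 50 mm, 1.8 μm) with water and acetonitrile, each containing 0.1% formic acid. A coupled quadrupole time-of-flight mass spectrometer operated in positive and negative ionization mode. Retention time values come from computationally picked adduct peaks, each inspected manually.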
As for `COc1ccc(Cl)cc1S(=O)(=O)NC1CCCN(c2ccc(=O)[nH]n2)C1` (stereo not given), the RP-LC retention time was found to be 698 s.

Molecule `COc1cc(-c2noc(Cn3ncn4nc(-c5ccc(F)cc5)cc4c3=O)n2)cc(OC)c1OC` had an RP-LC retention time of 1020 s.

Consider `Cc1ccsc1C(=O)N1CCCn2cc(-c3ccccc3)nc21`, for which the RP-LC retention time came to 686 s.

Molecule `Cc1c(Cl)cccc1N1C(=O)CN(S(C)(=O)=O)CC1(C)C(=O)NC1CCCCCCC1` (stereo not given) showed an RP-LC retention time of 1010 s.

The molecule `N#Cc1ccc(C(=O)N2CCN(c3cc(-c4ccc(Cl)cc4)[nH]n3)CC2)cc1` showed an RP-LC retention time of 826 s.

The molecule `COC(=O)c1cc(OCC(=O)Nc2ccc3c(c2)OCCO3)c2ccccc2n1` yielded an RP-LC retention time of 755 s.

Take `CCCC(=O)N1CCCC(c2nc(CNC(=O)C3CCC3)cs2)C1` (stereo not given): the RP-LC retention time came out at 694 s.

For `COCCn1cc(C(=O)NC2CCCCCC2)c2nn(-c3ccccc3)c(=O)c-2c1`, the RP-LC retention time worked out at 1010 s.

`Cc1cc2[nH]c(C(=O)Nc3cc(F)cc(F)c3)c(CN(C)C)c2s1` displayed an RP-LC retention time of 715 s.

`O=C(c1ccoc1)N1CCCCC1c1nc(-c2cnccn2)no1` (stereo not given) returned an RP-LC retention time of 664 s.

As for `Cn1nccc1-c1cccc(-c2noc(-c3ccnc(Cl)c3)n2)c1`, the RP-LC retention time worked out at 1050 s.

`CSc1ccc(CNC(=O)c2cn3c(n2)COCC3)cc1`: the RP-LC retention time worked out at 663 s.

`CCCc1ccc(S(=O)(=O)Nc2ccc3nc(S(=O)(=O)CC)sc3c2)cc1`: the RP-LC retention time is 1020 s.

In turn, `CCCCS(=O)(=O)N1CCN(c2nc(N3CCOCC3)nc(-n3ccnc3)n2)CC1` showed an RP-LC retention time of 604 s.

In turn, `O=C(N1CCN(S(=O)(=O)Cc2ccccc2)CC1)N1C[C@H]2C[C@H](C1)[C@H]1CCCC(=O)N1C2` came in with an RP-LC retention time of 709 s.

In the case of `Cc1ccc(N2CCN(C(=O)c3sc4ncccc4c3-n3cccc3)CC2)c(C)c1`, the RP-LC retention time was determined as 1260 s.

`NC(=O)c1cccn1Cc1ccc(Cl)cc1` had an RP-LC retention time of 778 s.

Regarding `Cc1cc(-c2cc(S(=O)(=O)NC3CCCCCC3)c(C)s2)n[nH]1`, the RP-LC retention time turned out to be 917 s.

`CCc1cccc2c1[nH]c1cc(NC(=O)CCc3c(C)[nH]c(=O)[nH]c3=O)ccc12` yielded an RP-LC retention time of 677 s.

The molecule `Cc1ccccc1CNC(=O)CN1C(=O)CSc2cccn2-c2ccccc21` came in with an RP-LC retention time of 916 s.

As for `Cn1cc(-c2noc(-c3cc(F)ccc3Cl)n2)ccc1=O`, the RP-LC retention time was determined as 894 s.

Take `CCc1ccc(-c2noc(CN3C(=O)COc4cc(C)ccc43)n2)cc1`: the RP-LC retention time came to 1170 s.

For `Cc1noc([C@@H]2CN(Cc3cccc(Cl)c3)C[C@H]2CO)n1`, the RP-LC retention time is 603 s.

On to `O=C(Nc1nc2ccccc2n1CCN1CCOCC1)c1cccc([N+](=O)[O-])c1`, for which the RP-LC retention time came to 581 s.

As to `CCCNC(=O)C1CCN(c2ccc(SCC(=O)Nc3ccc4c(c3)OCO4)nn2)CC1`, the RP-LC retention time was 610 s.

Take `COCCCNC(=O)c1cc2c(n(-c3ccc(C(F)(F)F)cc3)c1=O)CCCC2=O`: the RP-LC retention time was found to be 823 s.

The molecule `COc1ccc(S(=O)(=O)N2CCC[C@@H]2C(=O)NCc2csc(C)n2)cc1OC` displayed an RP-LC retention time of 662 s.

For the molecule `Cn1c(=O)oc2cc(-c3noc(-c4cccc(Br)c4)n3)ccc21`, the RP-LC retention time came out at 1190 s.

Take `Cc1ccc(CN2CCC(C(=O)N3CCCCCCNC(=O)CC3)CC2)s1`: the RP-LC retention time is 595 s.

`O=C(c1cccs1)N1CCC(c2nnc(-c3ccc(F)cc3)o2)CC1` had an RP-LC retention time of 733 s.

In the case of `COc1ccc2[nH]cc(CCNC(=O)Cn3nc4c(cc3=O)CCCC4)c2c1`, the RP-LC retention time worked out at 714 s.

On to `CN(CC1CCOC1)C(=O)Nc1cccc(Cl)c1` (stereo not given), for which the RP-LC retention time stood at 738 s.

`CCCN1CCN(C(=O)C2Cc3cc(S(=O)(=O)N4CCCCC4)ccc3N2C(C)=O)CC1` (stereo not given) registered an RP-LC retention time of 630 s.

`COc1ccc(C(=O)NCCc2sc(-c3cccc(F)c3)nc2C)c(OC)c1`: the RP-LC retention time worked out at 921 s.

`O=C(Cn1ccn2nc(-c3ccc(F)cc3)c(CO)c2c1=O)Nc1ccc(Br)cc1` yielded an RP-LC retention time of 891 s.

`COC(=O)C1=CN(c2cc(Cl)c(OC)cc2OC)c2ccc(F)cc2S1(=O)=O` registered an RP-LC retention time of 914 s.

Molecule `Cc1ccc(-c2nnc(SCC(=O)N3CCC(C)CC3)o2)cc1` had an RP-LC retention time of 986 s.

The molecule `CCC(C)NC(=O)c1n[nH]c2c1CCCC2` (stereo not given) displayed an RP-LC retention time of 718 s.

`CCC(C)Nc1nc2c(c(=O)n(C)c(=O)n2C)n1CC(O)COc1ccccc1` (stereo not given) showed an RP-LC retention time of 865 s.

Molecule `COC(=O)N1CCc2ccc(F)cc2C1C(=O)NCc1cccnc1` (stereo not given) gave an RP-LC retention time of 554 s.

For the molecule `Cc1cc(CNC(=O)C2(c3ccc(F)cc3)CC2)c(C)o1`, the RP-LC retention time came out at 900 s.

The molecule `O=C(C1CCN(c2ncccc2-c2nc(-c3cccc(Cl)c3)no2)CC1)N1CCOCC1` displayed an RP-LC retention time of 982 s.

In the case of `Brc1ccc(Nc2c(-c3ccc4c(c3)OCO4)nc3cnccn23)cc1`, the RP-LC retention time was found to be 921 s.

As for `Clc1ccc(Cl)c(-c2ccc(CNCC3CCCO3)o2)c1` (stereo not given), the RP-LC retention time is 699 s.

Take `CN1C(=O)[C@H]2CN(Cc3cc(F)cc(F)c3)C[C@H]2C1=O`: the RP-LC retention time was determined as 610 s.

`COc1ccccc1-c1nnc(-c2ccc(Cl)c(S(=O)(=O)N3CCCC3)c2)o1`: the RP-LC retention time turned out to be 992 s.

In turn, `CC(=O)c1ccc(NC(=O)Cn2c(-c3ccc(Cl)cc3)nc(C)cc2=O)cc1` gave an RP-LC retention time of 1040 s.

Turning to `O=C(NCC12CCC=C1N(CC1CC1)C(=O)CC2)Nc1cccc(F)c1` (stereo not given), the RP-LC retention time was found to be 876 s.

Regarding `Cc1ccc2c(c1)N(CCC(C)C)N=C(C(=O)N1CCCCC1)S2(=O)=O`, the RP-LC retention time came to 1080 s.

`COCCCn1c(=O)c2ccccc2n(Cc2nc(-c3ccccc3Cl)no2)c1=O` gave an RP-LC retention time of 1140 s.

In the case of `Cc1ccc(Cl)cc1NC(=O)NC1CCN(c2ccc(F)cc2)C1=O` (stereo not given), the RP-LC retention time came to 867 s.

As for `CS(=O)(=O)Nc1ccc(-c2noc(-c3ccc4c(c3)OCO4)n2)cc1`, the RP-LC retention time was found to be 897 s.

On to `O=C(NCc1cccc(C(F)(F)F)c1)c1c[nH]c2ncccc12`, for which the RP-LC retention time came to 760 s.

Molecule `CCc1ccc(CNC(=O)c2cc(-c3ccncc3)cn2C)cc1` returned an RP-LC retention time of 669 s.

Consider `CN1C[C@@H]2C(=O)N(CCc3ccccc3)C(=O)[C@@H]2C1`, for which the RP-LC retention time came out at 605 s.

Turning to `CCC1CCCCN1CCCNC(=O)CCc1cc2ccc(C)cc2[nH]c1=O` (stereo not given), the RP-LC retention time worked out at 596 s.

`Cc1ccc(-c2nc(-c3ccc4c(c3)oc(=O)n4C(C)C)no2)cc1C`: the RP-LC retention time came to 1130 s.

`Cc1ccccc1NC(=O)Cn1nc2nc(N3CCCC(C)C3)ccn2c1=O` (stereo not given) yielded an RP-LC retention time of 798 s.

Take `Cc1ccc2c(=O)c(C(=O)N3CCCCC3)cn(CC(=O)Nc3ccccc3)c2n1`: the RP-LC retention time is 713 s.

On to `Cc1ccc(CNC(=O)c2ccc3ccnc(N4CCN(c5ccccc5)CC4)c3c2)o1`, for which the RP-LC retention time stood at 819 s.

`CCOc1cccc(CNS(=O)(=O)c2cc(-c3nc(C(C)(C)C)cs3)cs2)c1`: the RP-LC retention time turned out to be 1270 s.

As to `CC(C)(C)NC(=O)N1CC(c2nc(-c3cccnc3)no2)C2(CCOCC2)C1` (stereo not given), the RP-LC retention time came out at 677 s.

Take `Cc1ccc(C)c(S(=O)(=O)N2CCC3(CC2)NCCN=C3NCc2ccc(F)cc2)c1`: the RP-LC retention time was determined as 772 s.

Regarding `COC(=O)c1cccc(NC(=O)c2sc(-c3cn(C(C)C)c4ncccc34)nc2C)c1`, the RP-LC retention time was determined as 1060 s.

For the molecule `CCc1onc(C)c1C1CCCN1C(=O)c1ccccc1F` (stereo not given), the RP-LC retention time amounted to 775 s.

`COc1ccc(-c2nc(NCCCN3CCC(N4CCCCC4)CC3)c3ccccc3n2)cc1` showed an RP-LC retention time of 1210 s.

`CSc1ccccc1CN1CCC(CNS(=O)(=O)/C=C/c2ccccc2)CC1`: the RP-LC retention time amounted to 607 s.

For the molecule `CC(C)NC(=O)N1CCCC(c2cccc(C(=O)NCc3ccc(F)cc3F)c2)C1` (stereo not given), the RP-LC retention time worked out at 862 s.

`Cc1noc2nc(CCC(=O)NCc3ccc(F)cc3Cl)nc(N3CCOCC3)c12`: the RP-LC retention time is 666 s.

`CC1(C)CC(=O)c2c(O)cc(OCC(=O)N3CCN(c4ccc(Cl)cc4)CC3)cc2O1` gave an RP-LC retention time of 1050 s.

`O=S(=O)(c1cccc(C(F)(F)F)c1)N1CCc2nc(-c3ccccc3)ncc2C1`: the RP-LC retention time was found to be 1140 s.

Turning to `CCC(c1ccccc1)c1nc(-c2ccc3nnn(C)c3c2)no1` (stereo not given), the RP-LC retention time worked out at 1100 s.

Consider `O=C(CN1C(=O)COc2ccc(C(=O)N3CCCC3)cc21)NCc1ccc(Cl)cc1`, for which the RP-LC retention time was 745 s.

`Cc1cc(C)c(C(=O)N2CCCC(C(=O)NCc3ccccc3Cl)C2)[nH]1` (stereo not given) returned an RP-LC retention time of 834 s.

Turning to `CC(C)n1cnc2ccc(-c3noc(-c4cccc(C#N)c4)n3)cc21`, the RP-LC retention time is 761 s.

For `Cc1noc(C)c1CCNC(=O)c1ccc2nc(Cc3ccccc3)oc2c1`, the RP-LC retention time was 830 s.

In turn, `O=C(Cc1cccc(F)c1)N1CCCCC1c1nncn1CC1CC1` (stereo not given) came in with an RP-LC retention time of 677 s.

On to `Cc1nn(-c2ccccc2)c(C)c1S(=O)(=O)N1CCC(C(=O)NCCc2cccs2)CC1`, for which the RP-LC retention time turned out to be 881 s.

`C=CCn1c(SCCC(=O)O)nnc1-c1cccs1` had an RP-LC retention time of 616 s.

In turn, `O=C(NC1CCCc2ccccc21)c1ccc(-n2nc(N3CCCC3)ccc2=O)cc1` (stereo not given) displayed an RP-LC retention time of 920 s.

Source of the values: the METLIN SMRT retention time set (Domingo-Almenara et al. 2019).
